Measurements as given in patent US10912767B2, “Anthracycline prodrugs and methods of making and using the same” (THE REGENTS OF THE UNIVERSITY OF COLORADO, priority 2015, dated 2021).
Like-named read-outs stand apart in the source and are kept apart here.

What was measured:
[1] = test system: NCI/ADR-RES multi-drug resistant ovarian cancer cell line; assay: Tumor cell growth inhibition, crystal violet (Example 2); type: cell-based; details: Homo sapiens
Source text: (§1) In order to investigate the photolysis of the drugs in a system amenable to cell culture use, a custom UV irradiation apparatus was constructed, consisting of 3 small blacklight fluorescent bulbs (Southern New England Ultraviolet Co., λmax=350 nm) set between two ring stands and suspended at a height of 11.5 cm. The bulbs' housing was reflective aluminum so as to direct as much UV irradiation as possible downward toward the plate. Upon installation in sterile cell culture hood, the power of the system was measured at approximately 6-7 mW using a Scientech laser power meter. Prior to experimentation, the hood and irradiation apparatus was sterilized with 254 nm germicidal UV irradiation overnight. Using this setup, 100 μM of 4,5-dimethoxy-2-nitrobenyl alcohol (DMNA), photodoxazolidine R═H, and glucose-PEG-photodoxazoldine were irradiated in individual wells of a 24-well plate. Initially, 50 μL of a DMSO stock was diluted with 950 μL of PBS and aliquots of 50 μL were removed at various times (0-180 min), mixing by pipetting each time. The timepoints were analyzed by HPLC (method 2) and plotted as fractional conversion versus time. […] Therefore, a second experiment was performed in which the PBS was replaced with 1:1 acetonitrile:water. With this system of 5% DMSO/47.5% acetonitrile/47.5% water, no visible precipitation was produced over the course of the reaction.
(§2) The ovarian carcinoma line NCl/ADR-RES (ADR) was grown in high-glucose Dulbecco's Modified Eagle Medium (DMEM) supplemented with 10% fetal bovine serum (FBS), 200 units/mL of penicillin and 200 μg/mL of streptomycin. The breast carcinoma line MDA-MB-231 was cultured in low-glucose DMEM with the same additives. Both lines were maintained in a humidified incubator with 5% CO2/95% air at 37° C. UV irradiations were performed with the apparatus described above.
(§3) Growth inhibition experiments were performed by seeding cells into 96-well plates or 24-well plates at densities of 1000-1500 cells per well or 8000 cells per well, respectively, and allowing the cells to adhere overnight. The media was then replaced with a range of aqueous concentrations of the drug in question and allowed to incubate at 37° C. with the cells for a span of time (Inc1) which ranged from 1 min to 48 hours. Irradiation was performed at room temperature with the plate's lid removed and ranged from 1 to 30 min. In some experiments, the drug solution was removed following Inc1 and irradiated in clean media or PBS. Following irradiation, the cells were placed back into the 37° C. incubator for a second period of incubation (Inc2), which varied between 1 min and 24 h, prior to replacement with fresh media. Plates which received no irradiation but identical treatment otherwise were done in parallel. The cells were then grown until the no-drug control wells reached approximately 80% confluence or 5 days, whichever was shorter. […] The cells were fixed with 5% formalin in PBS, stained with crystal violet, washed with tap water, and air-dried. The stain was resolubilized in 50% isopropyl alcohol, 50% H2O containing 2% (w/v) SDS. The staining density was read on a multiwell plate reader at 588-600 nm. Percentage cell density was calculated relative to the irradiated no-drug control wells, plotted as a function of drug concentration, and fit using non-linear least squared analysis with a variable-slope dose response model in GraphPad Prism 5.0 software.
(§4) Although the introduction of a long-pass glass filter between the light source and the plate alleviated this effect to a small extent, a maximum irradiation time of 10 min was settled upon. […] Since a media change at that point would remove the cells as well, the re-adherence of the cell population was accomplished by the addition of a large volume (200 μL) of complete media following Inc2, and overnight incubation. Then, a full media change was done to remove the drug. […]

[2] = Quantum yield of photocleavage, He-Cd laser 325 nm, HPLC; type: physicochemical
Method: Initially, measurement of the quantum yield of photodoxazolidine R═H was done in a fully-absorbing solution of photoactive drug in a solution of 90% dimethylacetamide (DMA), 10% water in a 1×1 cm quartz cuvette equipped with a small magnetic stir bar. A stock of photodoxazolidine in DMA was diluted in 9:1 DMA:H2O to a final concentration of 373 μM in a final volume of 3.380 mL. […] The cuvette was placed into the path of an Omnichrome He-Cd laser (single-window power: 10.75 mW at 325 nm using a Scientech laser power meter). The solution was mixed by the stir bar, which was agitated with a magnetic stir plate placed vertically next to the cuvette. Aliquots of 20 μL were removed at times between 0 and 62 min of irradiation and those aliquots were analyzed by HPLC (method 2) for the ratio of dox to photodoxazolidine. The quantum yield was calculated from the ratio of molecules of doxorubicin (dox) formed to photons absorbed.
To allow for better comparison between the quantum yield of photocleavage of photodoxazolidine with the quantum yield for azido-PEG-photodoxazolidine, the measurement was retaken with 50% acetonitrile in water as a solvent. […] Photodoxazolidine (in DMF) was diluted with 30 mL of 50% acetonitrile to a final concentration of 104 μM. The solution was confirmed to be fully absorbing by monitoring the laser power exiting the cell throughout the course of the experiment, which never deviated from 0 mW. As above, the contents of the cell were mixed with a small magnetic stir bar. Aliquots of 50 μL were removed at various times and analyzed as described above. The calculated quantum yield in this solvent system was identical to that measured from the […] system used above.
Concentration of azido-PEG-photodoxazolidine was determined via absorbance (λ=480 nm, ε=11500 M^−1 cm^−1). A sample ([…]) was dissolved in 1 mL of ACN and transferred to a cuvette. A 12.4 mW Omnichrome HeCd was used to irradiate the solution for 30 min at 325 nm. Aliquots of 10 μL were collected at different times and analyzed by HPLC to determine the % Dox in relation to that of azido-PEG-photodoxazolidine. In calculating quantum yield: power (without cuvette)=12.4 mW, (with cuvette)=10.7 mW, incident light=11.55 mW; energy=0.462 J, 7.55×1017 photons; t=40 sec when % Dox=9.2. Experiments were performed in triplicate.
Azido-PEG-photodoxazolidine was irradiated with a 12.4 mW monochromatic laser at 325 nm for 30 min. Aliquots were collected throughout to determine the amount of azido-PEG-photodoxazolidine in relation to released doxorubicin, which was quantified by HPLC. […] The average of triplicate quantum yield experiments was 0.025. This value is in the low end of the quantum yield range, yet is beneficial because it signifies that UV must be applied for longer durations prior to release of the cytotoxic agent. This makes administration of this photo-activated prodrug safer, and its synthesis more practical.

[3] = test system: MDA-MB-231 breast carcinoma cells; assay: Tumor cell uptake by flow cytometry; type: cell-based, human; details: 500 nM, 30 min to 4 h, compared against doxorubicin
Method: Uptake of the drugs by the cells was measured by flow cytometry. The cells were incubated with 500 nM photodoxazolidine R═H, azido-PEG-photodoxazolidine, or doxorubicin dissolved in 1:1 PBS:serum-free media for between 30 min and 4 h, after which the drug was removed and the cells washed with cold PBS. Cells were trypsinized to a single-cell suspension, rinsed again in cold PBS, and stored on ice for analysis by flow cytometry, monitoring the presence of the anthraquinone fluorophore (channel FL2). Cell populations were gated for intact cells in the side-scatter/forward-scatter plot and 10,000 gated events were scored for each timepoint. The mean fluorescence of the population was compared to the mean fluorescence of 10,000 gated events for an untreated population and the fold increase over background was plotted versus time of drug incubation.
Using MDA-MB-231 breast carcinoma cells, the cellular uptake of photodoxazolidine and azido-PEG-photodoxazolidine was analyzed by flow cytometry and compared against the uptake of doxorubicin.

[4] = test system: MDA-MB-231 breast cancer cells; assay: Tumor cell growth inhibition, crystal violet (Example 2); type: cell-based, human; details: Homo sapiens
Source text: as §1, §2, §3, §4

[5] = In vivo body weight change as indication of toxicity; parameters: species or system nude mice; details: 4 mg/kg dox equivalent iv weekly x6; photodoxazolidine with 18-FDG ip
Method: For reconstitution for intravenous injection into mice, dry photodoxazolidine R═H (23 mg) was dissolved in 785 μL of DMSO for a final concentration of 34.5 mM, labeled “Drug Stock,” and stored dark at −20° C. Shortly before injection, the Drug Stock was thawed and 20-50 μL was transferred to a new tube. To this tube, 6 volumes (relative to the Drug Stock volume) of PEG-400 and 4 volumes of propylene glycol (PG) were added and the solution thoroughly mixed by vortexing. Immediately prior to injection, 9 volumes of saline (0.9% NaCl) was added to the DMSO/PEG/PG solution of photodoxazolidine and mixed by vortexing. […] Therefore, this formulation was used as prepared. This protocol produces a final formulation of 5% DMSO, 30% PEG-400, 20% PG, 45% saline. A standard injection of 100 μL of this formulation delivers 4 mg dox equivalent/kg body weight for a mouse weighing 0.025 kg.
Luciferase-positive MDA-MB-231 cells were maintained in MEM culture medium supplemented with 10% heat inactivated fetal bovine serum and 2% penicillin/streptomycin. Prior to injection, typsinized cell populations were counted with a Z1 Coulter Particle counter, centrifuged, and resuspended in Hank's Balanced Salt Solution (HBSS) at a concentration of 4.0×10^7 cells/mL. […] Body weight and tumor growth were measured regularly. Tumor growth was measured optically from the bioluminescence signal from injection of luciferin. […]

[6] = test system: cancer cells; details: cited from earlier work
[7] = 37° C., pH 7.4; cited from earlier work

In the case of `COc1cc(C(C)OC(=O)N2CO[C@@H]3[C@H](C)O[C@@H](O[C@H]4C[C@](O)(C(=O)CO)Cc5c(O)c6c(c(O)c54)C(=O)c4c(OC)cccc4C6=O)C[C@@H]32)c([N+](=O)[O-])cc1OCC(=O)NCCOCCOCCOCCN=[N+]=[N-]` (mixture of isomers) [Azido-PEG-photodoxazolidine], the IC50 ([1]; 10 min) is reported as 0.081 ± 0.007 µM, the “quantum yield, fold larger than photodoxazolidine” value [2] is reported as 5-10 fold and the doxorubicin released ([2]; 40 sec irradiation, 12.4 mW laser at 325 nm) is reported as 9.2%. For the same molecule, the quantum yield ([2]; ACN, 325 nm, average of triplicate) was 0.025, the quantum yield ([2]; stated as suspected) was 0.01-0.02 and the “cellular uptake (cellular fluorescence)” value [3] was “only marginally improved uptake over doxorubicin”.

In the case of `COc1cccc2c1C(=O)c1c(O)c3c(c(O)c1C2=O)C[C@@](O)(C(=O)CO)C[C@@H]3O[C@H]1C[C@H](N)[C@H](O)[C@H](C)O1` [Dox, doxorubicin, reference compound], the IC50 ([1]; 3 h treatment, read-out: IC50) is reported as 10 µM, the IC50 ([4]; MDA-MB-231, 3 h treatment, read-out: IC50) is reported as 0.36 ± 0.03 µM and the body weight change [5] is reported as “significant weight loss”.

For `COc1cccc2c1C(=O)c1c(O)c3c(c(O)c1C2=O)C[C@@](O)(C(=O)CO)C[C@@H]3OC1CC2C(OCN2CN2COC3C(C)OC(O[C@H]4C[C@](O)(C(=O)CO)Cc5c(O)c6c(c(O)c54)C(=O)c4c(OC)cccc4C6=O)CC32)C(C)O1` (stereo partly shown) [DoxF], the “anti-tumor activity, fold above doxorubicin” value [6] is given as “approximately 100 fold”.

For `COc1cccc2c1C(=O)c1c(O)c3c(c(O)c1C2=O)C[C@@](O)(C(=O)CO)C[C@@H]3O[C@H]1C[C@@H]2NCO[C@@H]2[C@H](C)O1` [Doxaz, doxazolidine, reference compound], the IC50 ([1]; 3 h) is listed as 0.003 ± 0.0002 µM, the IC50 ([4]; MDA-MB-231, 3 h) is listed as 0.005 to 0.01 µM and the half-life [7] is listed as 3 min.
